Test results taken from patent publication US12673945B2, “3-((8-((1H-pyrazol-4-yl)amino)imidazo[1,2-a]pyridin-3-yl)ethinyl)-n-phenylbenzamide derivative, method for preparing same, and pharmaceutical composition containing same as active ingredient for prevention or treatment of cancer” (DAEGU-GYEONGBUK MEDICAL INNOVATION FOUNDATION, priority 2020, dated 2026).

Columns and labels:
[1] = oral pharmacokinetic test; type: in vivo, ICR mice; details: ICR, mouse, plasma, 10 mg/kg, 10 mg/Kg PO, vehicle A (NMP:PEG400=5:95)
Protocol: (§1) To evaluate the pharmacokinetic properties in vivo, oral pharmacokinetic test was performed with the compounds of Comparative Examples 1 and 4 and Examples 1 and 4 using mice and rats, and the PK parameters are shown in Table 10.
(§2) ICR mice (6-7 weeks old) and SD rats (6-7 weeks old) were used for the test. The fasted group was fasted about 16 hours before oral administration, and the fed group was fasted about 4 hours before oral administration. The test drug for oral administration was used by dissolving the drug in a vehicle at a concentration of 1 mg/mL for use, and blood samples were collected (time point: 0.25, 0.5, 1, 2, 4, 8, 12, 24, 32, n=3) from the heart (mouse, 500 μL/time point) or jugular vein (rat, 120 μL/time point). Blood was centrifuged at 12,000 G at 4° C. for 2 minutes to separate plasma, and stored at −80° C. until analysis. • Vehicle A (NMP:PEG400=5:95) • Vehicle B (0.5% methyl cellulose) 6-2. Sampling and Pretreatment
(§3) To 20 μl of plasma, 180 μl of acetonitrile (including internal standard) was added. The mixture was vortexed and centrifuged for 5 minutes at 15,000 rpm at 4° C. The supernatant obtained after centrifugation was analyzed by LC-MS/MS.
(§4) PK parameters were calculated with a non-compartmental analysis model using Phoenix WinNonlin 6.4 version (Pharsight, USA) program.

[2] = oral pharmacokinetic test; type: in vivo, SD rats; details: SD, plasma; rat, 10 mg/Kg PO, vehicle A (NMP:PEG400=5:95)
Protocol: as §1, §2, §3, §4

Parental (Ba/F3) = test: Ba/F3 cell proliferation inhibition; type: cell-based; details: BaF3; 72 hours, Cell Counting Kit-8
Method in brief: (§5)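 Parental and T315I-Bcr-Abl Ba/F3 cells, 1×10^4 per well, exposed 72 h at 37 °C to nine 3-fold dilutions, final 0 to 10 μM. Viability by CCK-8 after 2 h, absorbance 450 nm; GI50 fitted from percent of vehicle-treated cells.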

T315I-Bcr-Abl (Ba/F3) = test: Ba/F3 cell proliferation inhibition; type: cell-based; details: BaF3; 72 hours, Cell Counting Kit-8
Method in brief: as §5

T315I-TCCS cells = test: human CML cell proliferation inhibition; type: cell-based; details: 72 hours, Cell Counting Kit-8
Method in brief: (§6)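 Bcr-Abl TCCS and KOPM28 cells, plus their T315I-Bcr-Abl counterparts, are treated with compound (final 0–10 μM, 5-fold steps) for 72 h at 37 °C. Viability is measured by CCK-8 at 450 nm, and GI50 is computed as percent of DMSO control.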

KOPM28 cells = test: human CML cell proliferation inhibition; type: cell-based; details: 72 hours, Cell Counting Kit-8
Method in brief: as §6

TCCS cells = test: human CML cell proliferation inhibition; type: cell-based; details: 72 hours, Cell Counting Kit-8
Method in brief: as §6

T315I-KOPM28 cells = test: human CML cell proliferation inhibition; type: cell-based; details: 72 hours, Cell Counting Kit-8
Method in brief: as §6

[3] = test system: Luc_Ba/F3 T315I-Bcr-Abl cell line; test: in vivo pharmacological activity, blood cancer mouse model; set-up: species or system nude mice; details: 25 mg/kg oral once a day for 10 days; vehicle group: day 21
Protocol: (§7) After the mice were adapted to an animal facility for 1 week, the Luc_Ba/F3 T315I-Bcr-Abl cell line emitting luciferase was transplanted into the caudal vein at the density of 5×10^6/animal. Group separation was performed 3 days after the cell line transplantation. On the day of the group separation, 10 mice were randomly assigned to each group of 5 groups so that the luminescence values were equal after luminescence measurement using IVIS spectrum-CT optical imaging equipment.
In addition, the body weight and survival rate of each experimental group were monitored.
Statistical analysis was performed using GraphPad Prism 8, and the statistical significance of the survival rate was confirmed using unpaired t test and log-rank (Mantel-Cox) test.

[4] = body weight in blood cancer mouse model; type: in vivo, nude mice; details: 25 mg/kg oral once a day for 10 days
Protocol: as §7, with “A total of 50 male 5-week-old nude mice (14-17 g) were obtained from Orient Bio Inc. (322, Galmachi-ro, Jungwon-gu, Seongnam-si, Gyeonggi-do, Korea). After” for “After”
5 groups: control (vehicle, 0.5% methylcellulose solution), ponatinib (25 mg/kg), Example 1 (25 mg/kg), Example 1 (50 mg/kg), Example 1 (100 mg/kg).
After the group separation, the compound of Example 1, ponatinib, and a vehicle were orally administered at intervals of once a day for 10 days in order to evaluate the therapeutic efficacy of the drug. The drug effect was confirmed through optical imaging, and the confirmation was carried out before the drug administration (day 0) and on days 4, 11, 18 and 21 after the administration. In addition, the body weight and survival rate of each experimental group were monitored.

Cc1cn(-c2cc(NC(=O)c3ccc(C)c(C#Cc4cnc5c(Nc6cnn(C)c6)cccn45)c3)cc(C(F)(F)F)c2)cn1 [Comparative Example 1, 4-methyl-N-(3-(4-methyl-1H-imidazol-1-yl)-5-(trifluoromethyl)phenyl)-3-((8-((1-methyl-1H-pyrazol-4-yl)amino)imidazo[1,2-a]pyridin-3-yl)ethynyl)benzamide, reference compound]
AUC(0-t) [1]: 7730 ng·h/mL
Cmax [1]: 810 ng/mL
half-life [1]: 3.5 h

Cc1cn(-c2cc(NC(=O)c3ccc(C)c(C#Cc4cnc5c(Nc6cnn(C)c6)cccn45)c3)cc(C(C)(C)C#N)c2)cn1 [Comparative Example 4, N-(3-(2-cyanopropan-2-yl)-5-(4-methyl-1H-imidazol-1-yl)phenyl)-4-methyl-3-((8-((1-methyl-1H-pyrazol-4-yl)amino)imidazo[1,2-a]pyridin-3-yl)ethynyl)benzamide, reference compound]
AUC(0-t) [2]: 2960 ng·h/mL
Cmax [2]: 169 ng/mL
AUC(0-t) [1]: 12600 ng·h/mL
Cmax [1]: 3840 ng/mL
half-life [1]: 3.3 h

Cc1cc(F)c(C(=O)Nc2ccc(Cn3cncn3)c(C(F)(F)F)c2)cc1C#Cc1cnc2c(Nc3cn[nH]c3)cccn12 [Example 114, N-(4-((1H-1,2,4-triazol-1-yl)methyl)-3-(trifluoromethyl)phenyl)-5-((8-((1H-pyrazol-4-yl)amino)imidazo[1,2-a]pyridin-3-yl)ethynyl)-2-fluoro-4-methylbenzamide]
GI50 (Parental (Ba/F3)): > 5000 nM
GI50 (T315I-Bcr-Abl (Ba/F3)): 50 to 500 nM
GI50 (T315I-TCCS cells): > 100 nM
GI50 (KOPM28 cells): < 10 nM
GI50 (TCCS cells): < 10 nM
GI50 (T315I-KOPM28 cells): > 100 nM

Cc1ccc(C(=O)Nc2ccc(CN3CCN(C)CC3)c(C(F)(F)F)c2)cc1C#Cc1cnc2cccnn12 [ponatinib, reference compound]
day after the administration on which all subjects died (FIG. 3) [3]: 35 days
body weight change during the experimental period (FIG. 4) [4]: no significant body weight change
